Among the data in patent US8673897B2, “Benzodiazepinone compounds and methods of treatment using same” (The Regents of the University of Michigan, priority 2009, dated 2014) are IC50 and EC50 values, retold here.

The target of one test is T1, ATPase (Bos taurus, UniProt P13621).
T1 construct: from tissue; host or cells: bovine sub-mitochondrial particles (SMPs)
In words: ATPase inhibition assay. It counts as biochemical. As to the method:
(§1) Representative compounds were tested for cytotoxicity in Ramos cells and inhibitory activity against ATPase. The Ramos cell death assay and ATPase inhibition assay were conducted as described in K. M. Johnson et al. Chemistry & Biology 2005, 12, 485-496.

Another test has as its system Ramos cells. The experiment in a line: Ramos cell death assay (cytotoxicity). It counts as cell-based. The settings on record: Homo sapiens. The procedure:
as §1

Like-named read-outs stand apart in the source and are kept apart here.

For `CCn1c(=O)[nH]c2ccc(C3=NC(Cc4ccc5ccccc5c4)C(=O)N(C)c4ccc(Cl)cc43)cc21` (stereo not drawn) [Compound I-1, 7-Chloro-5-(3-ethyl-2-oxo-2,3-dihydro-1H-benzo[d]imidazol-5-yl)-1-methyl-3-(naphthalen-2-ylmethyl)-1H-benzo[e][1,4]diazepin-2(3H)-one], the IC50 on ATPase (read-out: ATPase IC50) was less than 7 µM. Moreover, the EC50 in the test on Ramos cells is greater than 7 µM.
`Cn1c(=O)[nH]c2ccc(C3=N[C@H](Cc4ccccc4Cl)C(=O)Nc4ccc(Cl)cc43)cc21` [IV-1, (R)-7-Chloro-3-(2-chlorobenzyl)-5-(3-methyl-2-oxo-2,3-dihydro-1H-benzo[d]imidazol-5-yl)-1H-benzo[e][1,4]diazepin-2(3H)-one] came in with an IC50 against ATPase of less than 7 µM. The same molecule displayed an EC50 in the test with Ramos cells of less than 7 µM.
At ATPase, `Cc1cc(C2=NC(Cc3ccc(C(F)(F)F)cc3)C(=O)Nc3ccc(Cl)cc32)ccc1O` (stereo not drawn) [III-6, 7-Chloro-5-(4-hydroxy-3-methylphenyl)-3-(4-(trifluoromethyl)benzyl)-1H-benzo[e][1,4]diazepin-2(3H)-one] had a 50% inhibitory concentration (IC50) greater than 7 µM. Further, in the test with Ramos cells, the EC50 was greater than 7 µM.
`O=C1Nc2ccc(Cl)cc2C(c2ccc3[nH]c(=O)n(CCO)c3c2)=NC1Cc1ccccc1Cl` (stereo not drawn) [Compound I-6, 7-Chloro-3-(2-chlorobenzyl)-5-(3-(2-hydroxyethyl)-2-oxo-2,3-dihydro-1H-benzo[d]imidazol-5-yl)-1H-benzo[e][1,4]diazepin-2(3H)-one]: on ATPase (read-out: ATPase IC50), the IC50 was greater than 7 µM. Further, the EC50 in the test with Ramos cells was less than 7 µM.
Turning to `Cc1cc(C2=N[C@H](Cc3ccccc3Cl)C(=O)Nc3ccc(Cl)cc32)ccc1O` [IV-6, (R)-7-Chloro-3-(2-chlorobenzyl)-5-(4-hydroxy-3-methylphenyl)-1H-benzo[e][1,4]diazepin-2(3H)-one], the IC50 against ATPase was less than 7 µM. The EC50 in the test on Ramos cells was less than 7 µM.
For `O=C1Nc2ccc(Cl)cc2C(c2ccc3[nH]c(=O)n(CCCO)c3c2)=NC1Cc1ccccc1Cl` (stereo not drawn) [Compound I-5, 7-Chloro-3-(2-chlorobenzyl)-5-(3-(3-hydroxypropyl)-2-oxo-2,3-dihydro-1H-benzo[d]imidazol-5-yl)-1H-benzo[e][1,4]diazepin-2(3H)-one], the IC50 at ATPase (read-out: ATPase IC50) is less than 7 µM. The same molecule displayed an EC50 in the test on Ramos cells of less than 7 µM.
For the molecule `Cn1c(=O)[nH]c2ccc(C3=NC(Cc4ccccc4Cl)C(=O)Nc4c(F)cc(Cl)cc43)cc21` (stereo not drawn) [Compound I-12, 7-Chloro-3-(2-chlorobenzyl)-9-fluoro-5-(3-methyl-2-oxo-2,3-dihydro-1H-benzo[d]imidazol-5-yl)-1H-benzo[e][1,4]diazepin-2(3H)-one], the IC50 at ATPase (read-out: ATPase IC50) is less than 7 µM. Also, in the test with Ramos cells, the EC50 was greater than 7 µM.
Consider `Cc1cc(C2=NC(Cc3ccccc3C(F)(F)F)C(=O)Nc3ccc(Cl)cc32)ccc1O` (stereo not drawn) [III-5, 7-Chloro-5-(4-hydroxy-3-methylphenyl)-3-(2-(trifluoromethyl)benzyl)-1H-benzo[e][1,4]diazepin-2(3H)-one], for which the IC50 against ATPase was less than 7 µM. This molecule came in with a concentration for a half-maximal effect (EC50) in the test with Ramos cells of less than 7 µM.
As for `CN1C(=O)C(Cc2ccccc2Cl)N=C(c2ccc3[nH]c(=O)n(CCCO)c3c2)c2cc(Cl)ccc21` (stereo not drawn) [Compound I-7, 7-Chloro-3-(2-chlorobenzyl)-5-(3-(3-hydroxypropyl)-2-oxo-2,3-dihydro-1H-benzo[d]imidazol-5-yl)-1-methyl-1H-benzo[e][1,4]diazepin-2(3H)-one], at ATPase (read-out: ATPase IC50), the IC50 is less than 7 µM. Moreover, in the test with Ramos cells, the EC50 was greater than 7 µM.
On ATPase, `Cc1cc(C2=NC(Cc3ccc(F)cc3Cl)C(=O)Nc3ccc(Cl)cc32)ccc1O` (stereo not drawn) [III-4, 7-Chloro-3-(2-chloro-4-fluorobenzyl)-5-(4-hydroxy-3-methylphenyl)-1H-benzo[e][1,4]diazepin-2(3H)-one] came in with an IC50 of less than 7 µM. The molecule also returned an EC50 in the test on Ramos cells of less than 7 µM.
With `COc1cc(Cl)cc2c1NC(=O)C(Cc1ccccc1Cl)N=C2c1ccc2[nH]c(=O)n(C)c2c1` (stereo not drawn) [Compound I-9, 7-Chloro-3-(2-chlorobenzyl)-9-methoxy-5-(3-methyl-2-oxo-2,3-dihydro-1H-benzo[d]imidazol-5-yl)-1H-benzo[e][1,4]diazepin-2(3H)-one], the concentration for half-maximal inhibition (IC50) on ATPase (read-out: ATPase IC50) was less than 7 µM. This molecule also displayed a half-maximal effective concentration (EC50) in the test on Ramos cells of less than 7 µM.
Turning to `O=C1Nc2ccc(Cl)cc2C(c2ccc3[nH]c(=O)n(CCCO)c3c2)=N[C@H]1Cc1ccccc1Cl` [IV-4, (S)-7-Chloro-3-(2-chlorobenzyl)-5-(3-(3-hydroxypropyl)-2-oxo-2,3-dihydro-1H-benzo[d]imidazol-5-yl)-1H-benzo[e][1,4]diazepin-2(3H)-one], the IC50 on ATPase (read-out: ATPase IC50) is less than 7 µM. Also, the EC50 in the test on Ramos cells was less than 7 µM.
In turn, `Cn1c(=O)[nH]c2ccc(C3=N[C@@H](Cc4ccccc4Cl)C(=O)Nc4ccc(Cl)cc43)cc21` [IV-2, (S)-7-chloro-3-(2-chlorobenzyl)-5-(3-methyl-2-oxo-2,3-dihydro-1H-benzo[d]imidazol-5-yl)-1H-benzo[e][1,4]diazepin-2(3H)-one] came in with an IC50 on ATPase of less than 7 µM. Besides, the EC50 in the test with Ramos cells is less than 7 µM.
In turn, `Cc1cc(C2=NC(Cc3cc(F)ccc3Cl)C(=O)Nc3ccc(Cl)cc32)ccc1O` (stereo not drawn) [III-2, 7-Chloro-3-(2-chloro-5-fluorobenzyl)-5-(4-hydroxy-3-methylphenyl)-1H-benzo[e][1,4]diazepin-2(3H)-one] registered an IC50 on ATPase of less than 7 µM. This molecule gave a concentration giving a half-maximal response (EC50) in the test on Ramos cells of less than 7 µM.
With `Cn1c(=O)[nH]c2ccc(C3=NC(Cc4ccccc4Cl)C(=O)N(CCO)c4ccc(Cl)cc43)cc21` (stereo not drawn) [Compound I-8, 7-Chloro-3-(2-chlorobenzyl)-1-(2-hydroxyethyl)-5-(3-methyl-2-oxo-2,3-dihydro-1H-benzo[d]imidazol-5-yl)-1H-benzo[e][1,4]diazepin-2(3H)-one], the IC50 on ATPase (read-out: ATPase IC50) was less than 7 µM. In the test on Ramos cells, this molecule gave an EC50 greater than 7 µM.
Turning to `CNC(=O)Cn1c(=O)[nH]c2ccc(C3=NC(Cc4ccccc4Cl)C(=O)Nc4ccc(Cl)cc43)cc21` (stereo not drawn) [Compound I-4, 2-(6-(7-Chloro-3-(2-chlorobenzyl)-2-oxo-2,3-dihydro-1H-benzo[e][1,4]diazepin-5-yl)-2-oxo-2,3-dihydro-1H-benzo[d]imidazol-1-yl)-N-methylacetamide], the IC50 at ATPase (read-out: ATPase IC50) was greater than 7 µM. In the test on Ramos cells, the EC50 is greater than 7 µM.
On to `Cn1c(=O)[nH]c2ccc(C3=NC(Cc4ccccc4Cl)C(=O)Nc4ccc(Cl)cc43)cc21` (stereo not drawn) [Compound I-2, 7-Chloro-3-(2-chlorobenzyl)-5-(3-methyl-2-oxo-2,3-dihydro-1H-benzo[d]imidazol-5-yl)-1H-benzo[e][1,4]diazepin-2(3H)-one], for which the IC50 at ATPase was less than 7 µM. This molecule also came in with an EC50 with Ramos cells of less than 7 µM.
Take `O=C(O)Cn1c(=O)[nH]c2ccc(C3=NC(Cc4ccccc4Cl)C(=O)Nc4ccc(Cl)cc43)cc21` (stereo not drawn) [Compound I-3, 2-(6-(7-Chloro-3-(2-chlorobenzyl)-2-oxo-2,3-dihydro-1H-benzo[e][1,4]diazepin-5-yl)-2-oxo-2,3-dihydro-1H-benzo[d]imidazol-1-yl)acetic acid]: the IC50 on ATPase (read-out: ATPase IC50) is greater than 7 µM. Further, the EC50 in the test on Ramos cells was greater than 7 µM.
For the molecule `Cn1c(=O)[nH]c2ccc(C3=NC(Cc4ccc(Cl)cc4)C(=O)Nc4ccc(Cl)cc43)cc21` (stereo not drawn) [Compound I-13, 7-Chloro-3-(4-chlorobenzyl)-5-(3-methyl-2-oxo-2,3-dihydro-1H-benzo[d]imidazol-5-yl)-1H-benzo[e][1,4]diazepin-2(3H)-one], the IC50 on ATPase is less than 7 µM. Moreover, the EC50 in the test on Ramos cells was less than 7 µM.
In the case of `CCc1ccc(CC2N=C(c3ccc(O)c(CC(N)=O)c3)c3cc(Cl)ccc3NC2=O)cc1CC` (stereo not drawn) [III-1, 2-(5-(7-Chloro-3-(3,4-diethylbenzyl)-2-oxo-2,3-dihydro-1H-benzo[e][1,4]diazepin-5-yl)-2-hydroxyphenyl)acetamide], the half-maximal inhibitory concentration (IC50) on ATPase (read-out: ATPase IC50) is greater than 7 µM. The EC50 with Ramos cells is less than 7 µM.
Turning to `CCn1c(=O)[nH]c2cc(C3=NC(Cc4ccc5ccccc5c4)C(=O)Nc4ccc(Cl)cc43)ccc21` (stereo not drawn) [Compound I-14], the IC50 on ATPase (read-out: ATPase IC50) is less than 7 µM. Moreover, the EC50 in the test with Ramos cells is less than 7 µM.
For the molecule `Cc1cc(C2=N[C@@H](Cc3ccccc3Cl)C(=O)Nc3ccc(Cl)cc32)ccc1O` [IV-5, (S)-7-Chloro-3-(2-chlorobenzyl)-5-(4-hydroxy-3-methylphenyl)-1H-benzo[e][1,4]diazepin-2(3H)-one], on ATPase, the IC50 was less than 7 µM. In the test on Ramos cells, this molecule showed an EC50 of less than 7 µM.
In the case of `Cn1c(=O)[nH]c2ccc(C3=NC(Cc4ccccc4Cl)C(=O)Nc4c(O)cc(Cl)cc43)cc21` (stereo not drawn) [Compound I-10, 7-Chloro-3-(2-chlorobenzyl)-9-hydroxy-5-(3-methyl-2-oxo-2,3-dihydro-1H-benzo[d]imidazol-5-yl)-1H-benzo[e][1,4]diazepin-2(3H)-one], the IC50 at ATPase (read-out: ATPase IC50) was less than 7 µM. In the test with Ramos cells, this molecule displayed an EC50 greater than 7 µM.
The like results for `O=C1Nc2ccc(Cl)cc2C(c2ccc3[nH]c(=O)n(CCCO)c3c2)=N[C@@H]1Cc1ccccc1Cl` [IV-3, (R)-7-chloro-3-(2-chlorobenzyl)-5-(3-(3-hydroxypropyl)-2-oxo-2,3-dihydro-1H-benzo[d]imidazol-5-yl)-1H-benzo[e][1,4]diazepin-2(3H)-one] were, in that order, less than 7 µM and less than 7 µM.
`O=C1Nc2ccc(F)cc2C(c2ccc3[nH]c(=O)[nH]c3c2)=NC1Cc1ccccc1Cl` (stereo not drawn) [II-1, 3-(2-Chlorobenzyl)-7-fluoro-5-(2-oxo-2,3-dihydro-1H-benzo[d]imidazol-5-yl)-1H-benzo[e][1,4]diazepin-2(3H)-one] yielded a half-inhibitory concentration (IC50) against ATPase greater than 7 µM. This molecule also displayed an EC50 in the test with Ramos cells of less than 7 µM.
The like results for `Cc1cc(C2=NC(Cc3ccc(Cl)cc3)C(=O)Nc3ccc(Cl)cc32)ccc1O` (stereo not drawn) [III-3, 7-Chloro-3-(4-chlorobenzyl)-5-(4-hydroxy-3-methylphenyl)-1H-benzo[e][1,4]diazepin-2(3H)-one] were, in that order, less than 7 µM and less than 7 µM.
As for `CN1C(=O)C(Cc2ccccc2Cl)N=C(c2ccc3[nH]c(=O)n(C)c3c2)c2cc(Cl)ccc21` (stereo not drawn) [Compound I-11, 7-Chloro-3-(2-chlorobenzyl)-1-methyl-5-(3-methyl-2-oxo-2,3-dihydro-1H-benzo[d]imidazol-5-yl)-1H-benzo[e][1,4]diazepin-2(3H)-one], the IC50 on ATPase (read-out: ATPase IC50) was less than 7 µM. The molecule further had an EC50 with Ramos cells greater than 7 µM.
